Reference: US11236055B2 (Venenum Biodesign, LLC, priority 2016, dated 2022)

Assays:
human TGR5 receptor = target: T1, human TGR5 receptor (Homo sapiens, UniProt Q8TDU6); experiment: Human TGR5 cAMP production assay; type: cell-based; settings: human TGR5, luminescent cAMP assay; coded A-D; read-out: Human TGR5 Lum. cAMP Activity (EC50)
T1 construct: host or cells: CHO-K1 (hTGR5-CHO cells)
T1 sequence (Q8TDU6 1-330): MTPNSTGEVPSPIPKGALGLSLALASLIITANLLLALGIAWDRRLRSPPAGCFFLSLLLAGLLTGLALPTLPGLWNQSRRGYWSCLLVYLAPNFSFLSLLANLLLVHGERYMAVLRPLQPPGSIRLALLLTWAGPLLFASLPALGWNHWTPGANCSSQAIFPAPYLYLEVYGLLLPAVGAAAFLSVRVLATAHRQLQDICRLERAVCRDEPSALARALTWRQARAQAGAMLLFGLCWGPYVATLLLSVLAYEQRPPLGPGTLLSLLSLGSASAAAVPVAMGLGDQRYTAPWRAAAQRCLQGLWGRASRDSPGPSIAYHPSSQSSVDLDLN
Method in brief: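 CHO-K1 cells stably expressing human TGR5, with IBMX and cAMP antibody, were exposed to half-log serially diluted compound for 1 h at room temperature. cAMP measured by enzyme-fragment complementation luminescence (XS+ kit) after overnight incubation; EC50 values reported.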

mouse TGR5 receptor = target: T2, mouse TGR5 receptor (Mus musculus, UniProt Q80SS6); experiment: Mouse TGR5 cAMP production assay (HTRF, Cisbio cAMP HiRange); type: cell-based; settings: HEK293-EBNA cells overexpressing mouse TGR5, HTRF cAMP HiRange; coded A-D
T2 construct: expressed in transfected cells; host or cells: HEK293-EBNA (293 c18, ATCC CRL10852), Hygromycin B selection
T2 sequence (Q80SS6 1-329): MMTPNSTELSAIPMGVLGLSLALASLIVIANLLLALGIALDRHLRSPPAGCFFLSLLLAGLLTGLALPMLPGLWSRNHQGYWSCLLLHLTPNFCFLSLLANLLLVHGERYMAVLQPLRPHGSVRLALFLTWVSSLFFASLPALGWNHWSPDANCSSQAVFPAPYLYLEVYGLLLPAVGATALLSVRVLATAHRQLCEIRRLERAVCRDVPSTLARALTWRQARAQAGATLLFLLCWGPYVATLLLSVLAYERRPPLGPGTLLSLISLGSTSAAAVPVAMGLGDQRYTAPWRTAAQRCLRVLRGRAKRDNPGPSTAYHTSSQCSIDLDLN
Method in brief: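 cAMP read by HTRF competition after 1 h room-temperature compound exposure of mouse TGR5-overexpressing HEK293-EBNA cells. Cells were suspended in serum-free DMEM containing 500 μM IBMX; compounds ran as 12-point half-log dilutions in duplicate; EC50 derived.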

SMILES | EC50 (human TGR5 receptor) [nM] | EC50 (mouse TGR5 receptor) [nM]
Cc1c(Cl)cccc1S(=O)(=O)N1CCN(C(=O)CCC(=O)O)CC1c1cccc(-c2ccncc2Cl)c1 (stereo not shown) [Compound 46AG, 4-(4-((3-chloro-2-methylphenyl)sulfonyl)-3-(3-(3-chloropyridin-4-yl)phenyl)piperazin-1-yl)-4-oxobutanoic acid] | 100 to 999 | < 100
Cc1cnccc1-c1cccc(C(C)N(CCNc2c(NCS(=O)(=O)O)c(=O)c2=O)S(=O)(=O)c2cccc(Cl)c2C)c1 (stereo not shown) [Compound 32, 2-((2-((2-(3-chloro-2-methyl-N-(1-(3-(3-methylpyridin-4-yl)phenyl)ethyl)phenylsulfonamido)ethyl)amino)-3,4-dioxocyclobut-1-en-1-yl)amino)methanesulfonic acid] | 1000 to 30000 | 1000 to 30000
Cc1cnccc1-c1cccc([C@H](CCCC#N)NS(=O)(=O)c2ccccc2C(F)(F)F)c1 [Compound 5BC, (S)-N-(4-cyano-1-(3-(3-methylpyridin-4-yl)phenyl)-butyl)-2-(trifluoromethyl)benzenesulfonamide] | < 100 | < 100
Cc1cnccc1-c1cccc(C2CN(C(=O)CCC(=O)O)CCN2S(=O)(=O)c2ccc(F)cc2C(F)(F)F)c1 (stereo not shown) [Compound 46AL] | 100 to 999 | 100 to 999
Cc1cnccc1-c1cccc([C@H](C)N(CCCC(=O)NS(=O)(=O)CCC(=O)O)S(=O)(=O)c2cccc(Cl)c2C)c1 [Compound 20BW, (S)-3-(N-(4-(3-chloro-2-methyl-N-(1-(3-(3-methylpyridin-4-yl)phenyl)ethyl)phenylsulfonamido)butanoyl)sulfamoyl)propanoic acid] | 100 to 999 | < 100
CC(C)(NS(=O)(=O)c1ccccc1C(F)(F)F)c1cccc(-c2ccc(=O)[nH]c2)c1 [Compound 3, N-(2-(3-(6-oxo-1,6-dihydropyridin-3-yl)phenyl)propan-2-yl)-2-(trifluoromethyl)benzenesulfonamide] | 100 to 999 | 1000 to 30000
Cc1cnccc1-c1cccc(C(C)(C)N(CCCC(=O)N[C@@H](CS(=O)(=O)O)C(=O)O)S(=O)(=O)c2cccc(Cl)c2C)c1 [Compound 21AA, (R)-2-(4-(3-chloro-2-methyl-N-(2-(3-(3-methylpyridin-4-yl)phenyl)propan-2-yl)phenylsulfonamido)butanamido)-3-sulfopropanoic acid] | 100 to 999 | < 100
Cc1cnccc1-c1cccc(C2CCCCN2S(=O)(=O)c2ccccc2C(F)(F)F)c1 (stereo not shown) [Compound 54, 3-methyl-4-(3-(1-((2-(trifluoromethyl)phenyl)sulfonyl)piperidin-2-yl)phenyl)pyridine] | < 100 | 100 to 999
Cc1ccc(S(=O)(=O)NC(CCCCC#N)c2cccc(-c3ccncc3C)c2)nc1 (stereo not shown) [Compound 35B, N-(5-cyano-1-(3-(3-methylpyridin-4-yl)phenyl)pentyl)-5-methylpyridine-2-sulfonamide] | 1000 to 30000 | 1000 to 30000
CCc1cnccc1-c1cccc([C@H](C)N(CCCC(=O)NCCN)S(=O)(=O)c2cccc(Cl)c2C)c1 [Compound 21AS, (S)-N-(2-aminoethyl)-4-(3-chloro-N-(1-(3-(3-ethylpyridin-4-yl)phenyl)ethyl)-2-methylphenylsulfonamido)butanamide] | < 100 | 100 to 999
COc1cnccc1-c1cccc(C(C)(C)NS(=O)(=O)c2ccc(Cl)cc2[N+](=O)[O-])c1 [Compound 2BI] | < 100 | 100 to 999
COC(=O)C(NS(=O)(=O)c1cccc(C(F)(F)F)c1)c1cccc(-c2ccncc2OC)c1 (stereo not shown) [Compound 1CE] | 1000 to 30000 | 1000 to 30000
Cc1cnccc1-c1cccc(C(C)(C)N(CCCC(=O)N[C@H](C)C(=O)O)S(=O)(=O)c2cccc(Cl)c2C)c1 [Compound 21AE, (R)-2-(4-(3-chloro-2-methyl-N-(2-(3-(3-methylpyridin-4-yl)phenyl)propan-2-yl)phenylsulfonamido)butanamido)propanoic acid] | < 100 | < 100
Cc1cnccc1-c1cccc([C@H](C)N(CCCC(=O)NCCS(=O)(=O)NCC(=O)O)S(=O)(=O)c2ccccc2C(F)(F)F)c1 [Compound 20BJ] | < 100 | < 100
Cc1cnccc1-c1cccc(C(C)(C)N(CCCNS(=O)(=O)CCN)S(=O)(=O)c2cccc(Cl)c2C)c1 [Compound 26, N-(3-((2-aminoethyl)sulfonamido)propyl)-3-chloro-2-methyl-N-(2-(3-(3-methylpyridin-4-yl)phenyl)propan-2-yl)benzenesulfonamide] | < 100 | 100 to 999
Cc1cnccc1-c1cccc([C@H](CCCC(=O)NCS(=O)(=O)O)NS(=O)(=O)c2ccccc2C(F)(F)F)c1 [Compound 20BR, (S)-(5-(3-(3-methylpyridin-4-yl)phenyl)-5-(2-(trifluoromethyl)phenylsulfonamido)pentanamido)methanesulfonic acid] | 100 to 999 | 100 to 999
CC(C)(NS(=O)(=O)c1ccccc1C(F)(F)F)c1cccc(-c2cnc3nccn3c2)c1 [Compound 5AM, N-(2-(3-(imidazo [1,2-a]pyrimidin-6-yl)phenyl)propan-2-yl)-2-(trifluoromethyl)benzenesulfonamide] | 1000 to 30000 | 1000 to 30000
COc1cnccc1-c1cccc(C(C)(C)NS(=O)(=O)c2ccc(Cl)cc2C(F)(F)F)c1 [Compound 2BF] | < 100 | 100 to 999
Cc1cnccc1-c1cccc([C@H](C)N(CCCCNC(=O)NCCS(=O)(=O)O)S(=O)(=O)c2ccccc2C(F)(F)F)c1 [Compound 28AB, (S)-2-(3-(4-(N-(1-(3-(3-methylpyridin-4-yl)phenyl)ethyl)-2-(trifluoromethyl)phenylsulfonamido)butyl)ureido)ethanesulfonic acid] | < 100 | 100 to 999
Cc1cnccc1-c1cccc([C@H](C)N(CCCCC(=O)NCCOCCNS(=O)(=O)CC(=O)O)S(=O)(=O)c2cccc(Cl)c2C)c1 [Compound 26AD] | < 100 | < 100
CCc1cnccc1-c1cccc([C@H](C)N(CCCCNC(=O)[C@@H](N)CS(=O)(=O)O)S(=O)(=O)c2cccc(Cl)c2C)c1 [Compound 31AD, (R)-2-amino-3-((4-(3-chloro-N-((S)-1-(3-(3-ethylpyridin-4-yl)phenyl)ethyl)-2-methylphenylsulfonamido)butyl)amino)-3-oxopropane-1-sulfonic acid] | < 100 | < 100
CCc1cnccc1-c1cccc([C@H](C)N(CCCCC(=O)O)S(=O)(=O)c2cccc(Cl)c2C)c1 [Compound 16AG, (S)-5-(3-chloro-N-(1-(3-(3-ethylpyridin-4-yl)phenyl)-ethyl)-2-methylphenyl-sulfonamido)pentanoic acid] | < 100 | < 100
Cc1cnccc1-c1cccc([C@H](C)N(CCCCC(=O)NC[C@@H](O)[C@H](O)[C@@H](O)[C@@H](O)CO)S(=O)(=O)c2cccc(Cl)c2C)c1 [Compound 20AI, 5-(3-chloro-2-methyl-N-((S)-1-(3-(3-methylpyridin-4-yl)phenyl)ethyl)phenylsulfonamido)-N-((2R,3S,4S,5S)-2,3,4,5,6-pentahydroxyhexyl)pentanamide] | < 100 | 100 to 999
